ChEMBL document CHEMBL1151396, “Synthesis of naphthoquinoles as potential antitumor agents related to jacaranone” (1982)
Converted amounts (≈) assume the structure as drawn.

These compounds were tested on P388 (assay: In vivo cytotoxicity against mouse P388 cells at 2 mg/kg relative to control). Settings: not given.
Format: functional

Row | SMILES | T/C [%]
1 | COC(=O)CC1(O)C=CC(=O)C=C1 [JACARANONE] | 165

These compounds were tested on KB (assay: Cytotoxicity against human KB cells). Settings: read-out: ED50 (the source's name).
Format: functional

Row | SMILES | EC50 [µg/mL]
2 | CCOC(=O)CC1(O)C=CC(=O)C=C1 | 3.3 (≈ 16.8 µM)
3 | COC(=O)CC1(O)C=CC(=O)c2ccccc21 (stereo unspecified) | 20 (≈ 86.1 µM)
4 | COC(=O)CC1(O)C=C(OC)C(=O)c2ccccc21 (stereo unspecified) | 25 (≈ 95.3 µM)
5 | COC(=O)CC1(O)C=C(C)C(=O)c2ccccc21 (stereo unspecified) | 100 (≈ 406 µM)
6 | COC(=O)CC1(O)C=CC(=O)C=C1 [JACARANONE] | 2.1 (≈ 11.5 µM)
